In PubChem BioAssay AID2060343 (Molecular Pharmacology Branch, DTP, NCI, 2025):

Tested on: 138582-337-R-J1-PDC spheroids with HUVEC/MSC, viability
Test: Anticancer human tumor 138582-337-R-J1-PDC patient-derived Merkel cell tumor cell line growth inhibition [IpAb]
Details: for IC50: curve of first compound; for viability, T/C: stronger effect = lower value
In short: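 Combinations with ipatasertib or abemaciclib were tested on tumour spheroids holding HUVEC (25%) and MSC (15%) alongside 60% malignant cells. Top concentration was at or near clinical Cmax (10 microM if undefined), descending in half-log steps.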

[1] = second compound 0.1 µM, first compound 0.0316 µM
[2] = second compound 0.1 µM, first compound 0.1 µM
[3] = second compound 0.1 µM, first compound 0.316 µM
[4] = second compound 0.1 µM, first compound 1 µM
[5] = second compound 0.1 µM, first compound 3.16 µM
[6] = second compound 0.1 µM, first compound 10 µM
[7] = second compound 0.316 µM, first compound 0.0316 µM
[8] = second compound 0.316 µM, first compound 0.1 µM
[9] = second compound 0.316 µM, first compound 0.316 µM
[10] = second compound 0.316 µM, first compound 1 µM
[11] = second compound 0.316 µM, first compound 3.16 µM
[12] = second compound 0.316 µM, first compound 10 µM
[13] = second compound 1 µM, first compound 0.0316 µM
[14] = second compound 1 µM, first compound 0.1 µM
[15] = second compound 1 µM, first compound 0.316 µM
[16] = second compound 1 µM, first compound 1 µM
[17] = second compound 1 µM, first compound 3.16 µM
[18] = second compound 1 µM, first compound 10 µM
[19] = second compound 3.16 µM, first compound 0.0316 µM
[20] = second compound 3.16 µM, first compound 0.1 µM
[21] = second compound 10 µM, first compound 0.0316 µM
[22] = second compound 10 µM, first compound 0.1 µM
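Further: spheroids exposed to compounds for seven days.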
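Wherever viability, T/C is given: 100% = DMSO vehicle control viability.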

Cn1ncc(Cl)c1-c1cc(C(=O)NC(CN)Cc2cccc(F)c2)sc1Cl (stereo not given) + CC(C)NCC(C(=O)N1CCN(c2ncnc3c2C(C)CC3O)CC1)c1ccc(Cl)cc1 was tested, and the IC50 (second compound 0.1 µM) was 3.04 µM, the IC50 (second compound 0.316 µM) was 3.8 µM and the IC50 (second compound 1 µM) was 3.32 µM. It also gave an IC50 (second compound 3.16 µM) of 3.41 µM, an IC50 (second compound 10 µM) of 0.686 µM and a viability, T/C [1] of 89.4%. It also gave a viability, T/C [2] of 83%, a viability, T/C [3] of 75.9% and a viability, T/C [4] of 61.4%. It also gave a viability, T/C [5] of 57.4%, a viability, T/C [6] of 0.26% and a viability, T/C [7] of 80.7%. It also gave a viability, T/C [8] of 67.3%, a viability, T/C [9] of 74.2% and a viability, T/C [10] of 64.8%. It also gave a viability, T/C [11] of 61.5%, a viability, T/C [12] of 0.25% and a viability, T/C [13] of 71.7%. It also gave a viability, T/C [14] of 73.1%, a viability, T/C [15] of 75.7% and a viability, T/C [16] of 55.7%. For the same compound, the viability, T/C [17] was 56.8%, the viability, T/C [18] was 0.23% and the viability, T/C [19] was 60.5%. It also gave a viability, T/C [20] of 62%, a viability, T/C (second compound 3.16 µM, first compound 0.316 µM) of 55.9% and a viability, T/C (second compound 3.16 µM, first compound 1 µM) of 58%. The viability, T/C (second compound 3.16 µM, first compound 3.16 µM) was 53.6%, the viability, T/C (second compound 3.16 µM, first compound 10 µM) was 0.23% and the viability, T/C [21] was 53.1%. The viability, T/C [22] was 45.6%, the viability, T/C (second compound 10 µM, first compound 0.316 µM) was 51.8% and the viability, T/C (second compound 10 µM, first compound 1 µM) was 50.8%. The viability, T/C (second compound 10 µM, first compound 3.16 µM) was 44.6% and the viability, T/C (second compound 10 µM, first compound 10 µM) was 0.3%.
Cn1ncnc1[C@H]1c2n[nH]c(=O)c3cc(F)cc(c23)N[C@@H]1c1ccc(F)cc1 + CC(C)NCC(C(=O)N1CCN(c2ncnc3c2C(C)CC3O)CC1)c1ccc(Cl)cc1 gave an IC50 (second compound 0.1 µM) greater than 0.1 µM, an IC50 (second compound 0.316 µM) greater than 0.1 µM and an IC50 (second compound 1 µM) greater than 0.1 µM. It also gave an IC50 (second compound 3.16 µM) greater than 0.1 µM, an IC50 (second compound 10 µM) of less than 0.000316 µM and a viability, T/C (second compound 0.1 µM, first compound 0.000316 µM) of 99.1%. It also gave a viability, T/C (second compound 0.1 µM, first compound 0.001 µM) of 83%, a viability, T/C (second compound 0.1 µM, first compound 0.00316 µM) of 89.1% and a viability, T/C (second compound 0.1 µM, first compound 0.01 µM) of 78.3%. It also gave a viability, T/C [1] of 78.6%, a viability, T/C [2] of 82.9% and a viability, T/C (second compound 0.316 µM, first compound 0.000316 µM) of 69.7%. The viability, T/C (second compound 0.316 µM, first compound 0.001 µM) was 81.8%, the viability, T/C (second compound 0.316 µM, first compound 0.00316 µM) was 64.5% and the viability, T/C (second compound 0.316 µM, first compound 0.01 µM) was 70.9%. It also gave a viability, T/C [7] of 72%, a viability, T/C [8] of 74% and a viability, T/C (second compound 1 µM, first compound 0.000316 µM) of 72.8%. It also gave a viability, T/C (second compound 1 µM, first compound 0.001 µM) of 64.2%, a viability, T/C (second compound 1 µM, first compound 0.00316 µM) of 68% and a viability, T/C (second compound 1 µM, first compound 0.01 µM) of 72.7%. For the same compound, the viability, T/C [13] was 74.2%, the viability, T/C [14] was 62% and the viability, T/C (second compound 3.16 µM, first compound 0.000316 µM) was 58.1%. For the same compound, the viability, T/C (second compound 3.16 µM, first compound 0.001 µM) was 67.6%, the viability, T/C (second compound 3.16 µM, first compound 0.00316 µM) was 59.2% and the viability, T/C (second compound 3.16 µM, first compound 0.01 µM) was 55.2%. For the same compound, the viability, T/C [19] was 51.3%, the viability, T/C [20] was 54.8% and the viability, T/C (second compound 10 µM, first compound 0.000316 µM) was 38.2%. For the same compound, the viability, T/C (second compound 10 µM, first compound 0.001 µM) was 46.7%, the viability, T/C (second compound 10 µM, first compound 0.00316 µM) was 42.4% and the viability, T/C (second compound 10 µM, first compound 0.01 µM) was 39.2%. The viability, T/C [21] was 38.9% and the viability, T/C [22] was 40.2%.
C=CCn1c(=O)c2cnc(Nc3ccc(N4CCN(C)CC4)cc3)nc2n1-c1cccc(C(C)(C)O)n1 + CCN1CCN(Cc2ccc(Nc3ncc(F)c(-c4cc(F)c5nc(C)n(C(C)C)c5c4)n3)nc2)CC1 gave an IC50 (second compound 0.01 µM) greater than 10 µM, an IC50 (second compound 0.0316 µM) greater than 10 µM and an IC50 (second compound 0.1 µM) greater than 10 µM. The IC50 (second compound 0.316 µM) was greater than 10 µM, the IC50 (second compound 1 µM) was greater than 10 µM and the viability, T/C (second compound 0.01 µM, first compound 0.0316 µM) was 105%. The viability, T/C (second compound 0.01 µM, first compound 0.1 µM) was 95.3%, the viability, T/C (second compound 0.01 µM, first compound 0.316 µM) was 100% and the viability, T/C (second compound 0.01 µM, first compound 1 µM) was 90.4%. For the same compound, the viability, T/C (second compound 0.01 µM, first compound 3.16 µM) was 117%, the viability, T/C (second compound 0.01 µM, first compound 10 µM) was 141% and the viability, T/C (second compound 0.0316 µM, first compound 0.0316 µM) was 106%. The viability, T/C (second compound 0.0316 µM, first compound 0.1 µM) was 99.5%, the viability, T/C (second compound 0.0316 µM, first compound 0.316 µM) was 90.9% and the viability, T/C (second compound 0.0316 µM, first compound 1 µM) was 99.1%. It also gave a viability, T/C (second compound 0.0316 µM, first compound 3.16 µM) of 101%, a viability, T/C (second compound 0.0316 µM, first compound 10 µM) of 133% and a viability, T/C [1] of 91.4%. For the same compound, the viability, T/C [2] was 98.7%, the viability, T/C [3] was 91.7% and the viability, T/C [4] was 90.3%. It also gave a viability, T/C [5] of 116%, a viability, T/C [6] of 141% and a viability, T/C [7] of 86.4%. It also gave a viability, T/C [8] of 96.2%, a viability, T/C [9] of 87.6% and a viability, T/C [10] of 94.1%. For the same compound, the viability, T/C [11] was 116%, the viability, T/C [12] was 144% and the viability, T/C [13] was 102%. For the same compound, the viability, T/C [14] was 109%, the viability, T/C [15] was 101% and the viability, T/C [16] was 105%. For the same compound, the viability, T/C [17] was 114% and the viability, T/C [18] was 134%.
Cn1cnc2c(F)c(Nc3ccc(Br)cc3Cl)c(C(=O)NOCCO)cc21 + CCN1CCN(Cc2ccc(Nc3ncc(F)c(-c4cc(F)c5nc(C)n(C(C)C)c5c4)n3)nc2)CC1 gave an IC50 (second compound 0.01 µM) greater than 3 µM, an IC50 (second compound 0.0316 µM) greater than 3 µM and an IC50 (second compound 0.1 µM) greater than 3 µM. It also gave an IC50 (second compound 0.316 µM) greater than 3 µM, an IC50 (second compound 1 µM) of 1.88 µM and a viability, T/C (second compound 0.01 µM, first compound 0.00949 µM) of 102%. For the same compound, the viability, T/C (second compound 0.01 µM, first compound 0.03 µM) was 94.5%, the viability, T/C (second compound 0.01 µM, first compound 0.0949 µM) was 75.3% and the viability, T/C (second compound 0.01 µM, first compound 0.3 µM) was 81.2%. The viability, T/C (second compound 0.01 µM, first compound 0.949 µM) was 94%, the viability, T/C (second compound 0.01 µM, first compound 3 µM) was 93.1% and the viability, T/C (second compound 0.0316 µM, first compound 0.00949 µM) was 94.8%. It also gave a viability, T/C (second compound 0.0316 µM, first compound 0.03 µM) of 91%, a viability, T/C (second compound 0.0316 µM, first compound 0.0949 µM) of 67.1% and a viability, T/C (second compound 0.0316 µM, first compound 0.3 µM) of 79.6%. The viability, T/C (second compound 0.0316 µM, first compound 0.949 µM) was 86.8%, the viability, T/C (second compound 0.0316 µM, first compound 3 µM) was 88.3% and the viability, T/C (second compound 0.1 µM, first compound 0.00949 µM) was 102%. It also gave a viability, T/C (second compound 0.1 µM, first compound 0.03 µM) of 88.2%, a viability, T/C (second compound 0.1 µM, first compound 0.0949 µM) of 78.3% and a viability, T/C (second compound 0.1 µM, first compound 0.3 µM) of 68.7%. The viability, T/C (second compound 0.1 µM, first compound 0.949 µM) was 76.9%, the viability, T/C (second compound 0.1 µM, first compound 3 µM) was 73.1% and the viability, T/C (second compound 0.316 µM, first compound 0.00949 µM) was 88.8%. The viability, T/C (second compound 0.316 µM, first compound 0.03 µM) was 90.8%, the viability, T/C (second compound 0.316 µM, first compound 0.0949 µM) was 83% and the viability, T/C (second compound 0.316 µM, first compound 0.3 µM) was 66%. The viability, T/C (second compound 0.316 µM, first compound 0.949 µM) was 72.9%, the viability, T/C (second compound 0.316 µM, first compound 3 µM) was 56.3% and the viability, T/C (second compound 1 µM, first compound 0.00949 µM) was 96.1%. For the same compound, the viability, T/C (second compound 1 µM, first compound 0.03 µM) was 90.2%, the viability, T/C (second compound 1 µM, first compound 0.0949 µM) was 78% and the viability, T/C (second compound 1 µM, first compound 0.3 µM) was 74.5%. For the same compound, the viability, T/C (second compound 1 µM, first compound 0.949 µM) was 73.1% and the viability, T/C (second compound 1 µM, first compound 3 µM) was 37.1%.
